{"source": "paper PMC11149917", "about": "“Translational and Therapeutic Evaluation of RAS-GTP Inhibition by RMC-6236 in RAS-Driven Cancers” (Cancer Discovery, 2024)", "assay_in_all_cases": "Subcutaneous xenograft antitumor activity", "format_in_all_cases": "in vivo, mouse", "key": {"[1]": {"test_system": "Capan-2 (KRAS^G12V/WT, PDAC) xenograft", "details": "for Tumor Volume: Capan-2 Tumor Volume Data", "method": "(§1) To generate subcutaneous CDX, each mouse was inoculated at the right flank with tumor cells (2 × 10^6 − 1 × 10^7) in 100 to 200 µL of media/PBS Supplemented with Matrigel. Treatments were initiated when average tumor volume reached 130 to 200 mm^3 for tumor growth evaluation and 350 to 650 mm^3 for single-dose pharmacokinetic/pharmacodynamic (PK/PD). Tumor diameter was measured in two dimensions using a digital caliper, and the tumor volume in mm^3 was calculated using the formula: Volume = ((width)^2 × length)/2. Mice in the study were weighed and tumors were measured twice weekly.\n(§2) Tumor-bearing animals were randomized and assigned into groups (n = 1–10/group). The vehicle at 10 mL/kg or RMC-6236 at indicated doses was administered via oral gavage daily, and animals were treated for 28 days, or up to 90 days if PFS was being assessed. […] For single-dose PKPD study, mice were randomized and assigned into groups (n = 3/dose/time point). A single dose of RMC-6236 was administered orally at either 3, 10, or 25 mg/kg. Blood and tissues, including the tumor, brain, colon, ear skin, and muscle, were harvested at indicated time points. Whole blood was collected in K2EDTA Microtainer tubes, incubated for 5 minutes, and snap-frozen in liquid nitrogen. The tissue was either fixed in 10% formalin or snap-frozen in liquid nitrogen for further analysis.\n(§3) In tumor volume plots, the average tumor volume of each group was plotted over the course after implantation (except for PDX models, where the x-axis started on the first day of treatment). Control and RMC-6236 groups were compared by two-way repeated-measures ANOVA on the last measurement day of the control group. Percentage change in body weight for each animal on a given day was determined as [(body weight on test article administration end date/body weight on test article administration start date) −1] × 100. The percentage mean tumor volume change from baseline was graphed in the waterfall plots. The mRECIST score was determined based on % mean tumor volume change, mCR is more than 80% regression, mPR is between 30% and 80% regression, mSD is between 30% growth and 30% regression, mPD is more than 30% growth. Progression is defined as tumor volume doubling from baseline and represented with Kaplan–Meier plots. Log-rank test was used to compare vehicle control with treatment groups. Cox Proportional Hazards models were used to estimate hazard ratios between vehicle control and treatment groups. Tumor relapse was defined here as models that were considered mPR or mCR at the response calling date and then rebounded from mean tumor volume regressions to either stable disease or progression when dosed long-term (more than 60 days)."}, "[2]": {"test_system": "HPAC (KRAS^G12D/WT, PDAC) xenograft", "details": "HPAC (25 mg/kg)", "method": "as §1, §2, §3"}, "[3]": {"test_system": "KP-4 (KRAS^G12D/WT, PDAC) xenograft", "details": "KP-4 (25 mg/kg)", "method": "as §1, §2, §3"}, "[4]": {"test_system": "NCI-H2122 (KRAS^G12C/G12C, NSCLC) xenograft", "details": "NCI-H2122 (25 mg/kg)", "method": "as §1, §2, §3"}, "[5]": {"test_system": "NCI-H358 (KRAS^G12C/WT, NSCLC) xenograft", "details": "NCI-H358 (25 mg/kg)", "method": "as §1, §2, §3"}, "[6]": {"test_system": "NCI-H441 (KRAS^G12V/WT, NSCLC) xenograft", "details": "for Tumor Volume: NCI-H441 Tumor Volume Data, dose every 24 h", "method": "as §1, §2, §3"}}, "data": [{"smiles": "CCn1c(-c2cc(N3CCN(C)CC3)cnc2[C@H](C)OC)c2c3cc(ccc31)-c1csc(n1)C[C@H](NC(=O)[C@H]1C[C@@H]1C)C(=O)N1CCC[C@H](N1)C(=O)OCC(C)(C)C2", "note": "[RMC-6236]", "values": [{"measurement": "Anti-Tumor Activity (% regression)", "setting": "[1]; Capan-2 (10 mg/kg)", "result": 13, "unit": "%"}, {"measurement": "Anti-Tumor Activity (% regression)", "setting": "[1]; Capan-2 (25 mg/kg)", "result": 53.0, "unit": "%"}, {"measurement": "mean tumor regression", "setting": "[1]; Capan-2, 10 mg/kg daily, 4 weeks", "result": 13, "unit": "%"}, {"measurement": "Tumor Volume", "setting": "[1]; 10mg/kg_Capan2, dose every 24 h, 0 h (baseline)", "result": 166.375, "unit": "mm^3"}, {"measurement": "Tumor Volume", "setting": "[1]; 10mg/kg_Capan2, dose every 24 h, 48 h", "result": 174.875, "unit": "mm^3"}, {"measurement": "Tumor Volume", "setting": "[1]; 10mg/kg_Capan2, dose every 24 h, 144 h", "result": 156.5, "unit": "mm^3"}, {"measurement": "Tumor Volume", "setting": "[1]; 10mg/kg_Capan2, dose every 24 h, 384 h", "result": 177.25, "unit": "mm^3"}, {"measurement": "Tumor Volume", "setting": "[1]; 10mg/kg_Capan2, dose every 24 h, 480 h", "result": 157.5, "unit": "mm^3"}, {"measurement": "Tumor Volume", "setting": "[1]; 10mg/kg_Capan2, dose every 24 h, 552 h", "result": 152.125, "unit": "mm^3"}, {"measurement": "Tumor Volume", "setting": "[1]; 25mg/kg_Capan2, dose every 24 h, 0 h (baseline)", "result": 166.375, "unit": "mm^3"}, {"measurement": "Tumor Volume", "setting": "[1]; 25mg/kg_Capan2, dose every 24 h, 48 h", "result": 154.875, "unit": "mm^3"}, {"measurement": "Tumor Volume", "setting": "[1]; 25mg/kg_Capan2, dose every 24 h, 144 h", "result": 132.75, "unit": "mm^3"}, {"measurement": "Tumor Volume", "setting": "[1]; 25mg/kg_Capan2, dose every 24 h, 384 h", "result": 105, "unit": "mm^3"}, {"measurement": "Tumor Volume", "setting": "[1]; 25mg/kg_Capan2, dose every 24 h, 480 h", "result": 90.25, "unit": "mm^3"}, {"measurement": "Tumor Volume", "setting": "[1]; 25mg/kg_Capan2, dose every 24 h, 552 h", "result": 86.875, "unit": "mm^3"}, {"measurement": "Anti-Tumor Activity (% regression)", "setting": "[2]", "result": 93, "unit": "%"}, {"measurement": "Anti-Tumor Activity (% regression)", "setting": "[3]; d14", "result": 48.2, "unit": "%"}, {"measurement": "Anti-Tumor Activity, %TGI", "setting": "[3]; d28", "result": 89.2, "unit": "% TGI"}, {"measurement": "Anti-Tumor Activity, %TGI", "setting": "[4]", "result": 99.64, "unit": "%TGI"}, {"measurement": "Anti-Tumor Activity (% regression)", "setting": "[5]", "result": 92.97, "unit": "%"}, {"measurement": "Anti-Tumor Activity (% regression)", "setting": "[6]; NCI-H441 (25 mg/kg)", "result": 88.0, "unit": "%"}, {"measurement": "mean tumor regression", "setting": "[6]; NCI-H441, 10 mg/kg daily, 4 weeks", "result": 29, "unit": "%"}, {"measurement": "Tumor Volume", "setting": "[6]; 1mg/kg, 0 h (baseline)", "result": 155.297, "unit": "mm^3"}, {"measurement": "Tumor Volume", "setting": "[6]; 1mg/kg, 72 h", "result": 211.748, "unit": "mm^3"}, {"measurement": "Tumor Volume", "setting": "[6]; 1mg/kg, 240 h", "result": 488.795, "unit": "mm^3"}, {"measurement": "Tumor Volume", "setting": "[6]; 1mg/kg, 336 h", "result": 652.416, "unit": "mm^3"}, {"measurement": "Tumor Volume", "setting": "[6]; 1mg/kg, 408 h", "result": 795.041, "unit": "mm^3"}, {"measurement": "Tumor Volume", "setting": "[6]; 1mg/kg, 504 h", "result": 1190.95, "unit": "mm^3"}, {"measurement": "Tumor Volume", "setting": "[6]; 1mg/kg, 576 h", "result": 1534.52, "unit": "mm^3"}, {"measurement": "Tumor Volume", "setting": "[6]; 1mg/kg, […]", "result": 331.176, "unit": "mm^3"}, {"measurement": "Tumor Volume", "setting": "[6]; 5mg/kg, 0 h (baseline)", "result": 155.278, "unit": "mm^3"}, {"measurement": "Tumor Volume", "setting": "[6]; 5mg/kg, 72 h", "result": 132.554, "unit": "mm^3"}, {"measurement": "Tumor Volume", "setting": "[6]; 5mg/kg, 240 h", "result": 165.633, "unit": "mm^3"}, {"measurement": "Tumor Volume", "setting": "[6]; 5mg/kg, 336 h", "result": 208.828, "unit": "mm^3"}, {"measurement": "Tumor Volume", "setting": "[6]; 5mg/kg, 408 h", "result": 274.14, "unit": "mm^3"}, {"measurement": "Tumor Volume", "setting": "[6]; 5mg/kg, 504 h", "result": 284.303, "unit": "mm^3"}, {"measurement": "Tumor Volume", "setting": "[6]; 5mg/kg, 576 h", "result": 324.789, "unit": "mm^3"}, {"measurement": "Tumor Volume", "setting": "[6]; 5mg/kg, 672 h", "result": 374.96, "unit": "mm^3"}, {"measurement": "Tumor Volume", "setting": "[6]; 5mg/kg, […]", "result": 115.114, "unit": "mm^3"}, {"measurement": "Tumor Volume", "setting": "[6]; 10mg/kg, 0 h (baseline)", "result": 155.355, "unit": "mm^3"}, {"measurement": "Tumor Volume", "setting": "[6]; 10mg/kg, 72 h", "result": 120.95, "unit": "mm^3"}, {"measurement": "Tumor Volume", "setting": "[6]; 10mg/kg, 240 h", "result": 80.5583, "unit": "mm^3"}, {"measurement": "Tumor Volume", "setting": "[6]; 10mg/kg, 336 h", "result": 79.7939, "unit": "mm^3"}, {"measurement": "Tumor Volume", "setting": "[6]; 10mg/kg, 408 h", "result": 102.218, "unit": "mm^3"}, {"measurement": "Tumor Volume", "setting": "[6]; 10mg/kg, 504 h", "result": 74.6022, "unit": "mm^3"}, {"measurement": "Tumor Volume", "setting": "[6]; 10mg/kg, 576 h", "result": 87.8761, "unit": "mm^3"}, {"measurement": "Tumor Volume", "setting": "[6]; 10mg/kg, 672 h", "result": 105.875, "unit": "mm^3"}, {"measurement": "Tumor Volume", "setting": "[6]; 10mg/kg, […]", "result": 91.6508, "unit": "mm^3"}, {"measurement": "Tumor Volume", "setting": "[6]; 25mg/kg, 0 h (baseline)", "result": 155.304, "unit": "mm^3"}, {"measurement": "Tumor Volume", "setting": "[6]; 25mg/kg, 72 h", "result": 113.104, "unit": "mm^3"}, {"measurement": "Tumor Volume", "setting": "[6]; 25mg/kg, 240 h", "result": 58.639, "unit": "mm^3"}, {"measurement": "Tumor Volume", "setting": "[6]; 25mg/kg, 336 h", "result": 46.9253, "unit": "mm^3"}, {"measurement": "Tumor Volume", "setting": "[6]; 25mg/kg, 408 h", "result": 36.776, "unit": "mm^3"}, {"measurement": "Tumor Volume", "setting": "[6]; 25mg/kg, 504 h", "result": 29.9204, "unit": "mm^3"}, {"measurement": "Tumor Volume", "setting": "[6]; 25mg/kg, 576 h", "result": 27.7701, "unit": "mm^3"}, {"measurement": "Tumor Volume", "setting": "[6]; 25mg/kg, 672 h", "result": 19.397, "unit": "mm^3"}, {"measurement": "Tumor Volume", "setting": "[6]; 25mg/kg, […]", "result": 78.2002, "unit": "mm^3"}]}]}
